# Assays:
# [1] = tested on: passive cutaneous anaphylaxis (PCA), ovalbumin challenge; assay: Passive cutaneous anaphylaxis (PCA) in rats; assay type: in vivo, Male Wistar rats; conditions: S.C., PBS with NaHCO3, rat
# Method: Serum containing heat labile homocytotropic anitbody was raised in rats to crystallized ovalbumin XOA by the method of Mota (I. Mota, Immunology, 7,681 [1964]) using Bordettela pertussis vaccine as adjuvant.
# Passive cutaneous anaphylaxis (PCA) was carried out by a method based on that of Ovary and Bier, (A. Ovary and O. G. Bier, Proc. Soc. Exp. Biol. Med. 81, 584, [1952]) as modified by Goose and Blair. (Immunology 16, 749 (1969).
# Male Wistar rats of 250-300 g. were given 0.1 ml. of each of six twofold serial dilutions of pooled antiserum in 0.9% saline injected intradermally into separate sites on their shaved backs. Later (72 hrs.) the animals were challenged by intravenous injection of 0.3 ml. of a 1% solution of ovalbumin in an isotonic solution of saline buffered with 0.05 M, pH 7.2, Sorenson Buffer (PBS), mixed with 0.2 ml. of a 5% solution of Pontamine Sky Blue (6BX C.I. 24410, Raymond A. Lamb, London) in isotonic saline. The rats were killed after 20 min and the diameter of the blue wheals at the antibody injection sites was measured on the outer surface of the skin. The starting dilution of the serum was adjusted so that there was no response, after challenge, at the injection site of the highest dilution and a maximum response at the lowest dilutions. Typically six twofold serial dilutions of the serum from 1/4 to 1/128 were used.
# Compounds were tested for their ability to reduce the diameter of the wheals at those intradermal sites which in control animals gave less than maximum response. Each dose of the compound was administered to six rats at a measured time prior to intravenous challenge with ovalbumin. Control groups of six rats were given the same volume of carrier fluid (0.2 ml, 100 g^-1) at the same time prior to challenge.
# The results were calculated as follows: % inhibition of PCA=100 (1-a/b) where a=the sum of the diameters of the wheals produced in the test animal at the sites of antibody dilutions as used in control groups and b=the mean sum of the diameters of the wheals produced in the control group of animals at those antibody sites where at least five out of six of the animals gave less than maximum response. A typical variations in the control group of animals was SEM±6%.
# [2] = Oral LD50 toxicity; assay type: in vivo; conditions: rat, in vivo, Charles River Sprage Dawley CD strain male rats
# Source text: (§1) Toxicity: Oral LD50 of the compound of example 1(d) in Charles River Sprage Dawley CD strain Male Rats: 980 mgkg^-1. LD50 data confidence limits: 95%, 548-1,413 mgkg^-1.
# [3] = tested on: Charles River Sprage Dawley CD strain Male Rats; assay: Oral LD50 toxicity; assay type: in vivo; conditions: 95% confidence limits
# Source text: as §1
structure (smiles),measurement,setting,value
"O=C1c2ccc(F)cc2C(=O)c2[nH]nnc21 [5(e), 4,9-Dihydro-4,9-dioxo-6-fluoro-1H-naphtho[2,3-d]-triazole]",% Inhib PCA,"[1]; 10 mins, 20 mg/kg",90%
same,% Inhib PCA,"[1]; 30 mins, 20 mg/kg",27%
"Cc1cc2c(cc1C)C(=O)c1[nH]nnc1C2=O [1(d), 4,9-dihydro-6,7-dimethyl-4,9-dioxo-1H-naphtho[2,3-d]-triazole]",% Inhib PCA,"[1]; 5 mins, 0.1 mg/kg",30%
same,% Inhib PCA,"[1]; 5 mins, 0.2 mg/kg",54%
same,% Inhib PCA,"[1]; 5 mins, 0.4 mg/kg",61%
same,% Inhib PCA,"[1]; 5 mins, 0.8 mg/kg",86%
same,LD50,[2],980 mg/kg
same,LD50 data confidence limits: 95%,[3],"548-1,413 mgkg^-1"
"O=C1c2ccccc2C(=O)c2[nH]nnc21 [Example 8, 4,9-Dihydro-4,9-dioxo-1H-naphtho[2,3-d]-triazole]",% Inhib PCA,"[1]; 5 mins, 1 mg/kg",39%
same,% Inhib PCA,"[1]; 5 mins, 2 mg/kg",82%
"COc1ccc2c(c1)C(=O)c1nn[nH]c1C2=O [3(e), 4,9-Dihydro-4,9-dioxo-6-methoxy-1H-naphtho[2,3-d]-triazole]",% Inhib PCA,"[1]; 10 mins, 20 mg/kg",61%
same,% Inhib PCA,"[1]; 30 mins, 20 mg/kg",34%
"Cc1cc2c(c([N+](=O)[O-])c1C)C(=O)c1nn[nH]c1C2=O [Example 6, 4,9-Dihydro-6,7-dimethyl-4,9-dioxo-5-nitronaphtho[2,3-d]-triazole]",% Inhib PCA,"[1]; 10 mins, 1 mg/kg",66%
same,% Inhib PCA,"[1]; 30 mins, 1 mg/kg",28%
"O=C1c2cccc([N+](=O)[O-])c2C(=O)c2[nH]nnc21 [Example 4, 4,9-Dihydro-4,9-dioxo-5-nitro-1H-naphtho-[2,3-d]-triazole]",% Inhib PCA,"[1]; 10 mins, 10 mg/kg",44%
same,% Inhib PCA,"[1]; 30 mins, 10 mg/kg",19%
"Cc1ccc2c(c1)C(=O)c1nn[nH]c1C2=O [2(d), 4,9-Dihydro-4,9-dioxo-6methyl-1H-naphtho[2,3-d]-triazole]",% Inhib PCA,"[1]; 10 mins, 20 mg/kg",73%
same,% Inhib PCA,"[1]; 30 mins, 20 mg/kg",57%

# Source: patent publication US4263309A, “Polycyclic triazoles used to inhibit allergic responses” (Beecham Group Limited, priority 1977, dated 1981)
